Experimental data published in ChEMBL document CHEMBL4020788, “Synthesis, SAR and molecular docking studies of benzo[d]thiazole-hydrazones as potential antibacterial and antifungal agents” (2017).
Values after ≈ are worked out from the molar mass of the structure shown. Active and inactive are the calls of the source. No cut-off for these calls is given here.

Columns and labels:
Type in all cases: functional
[1] = tested on: Staphylococcus aureus; test: Antibacterial activity against Staphylococcus aureus at 25 ug/ml after 24 hrs by agar well diffusion method; details: read-out: DIZ
[2] = tested on: Staphylococcus aureus; test: Antibacterial activity against Staphylococcus aureus at 50 ug/ml after 24 hrs by agar well diffusion method; details: read-out: DIZ
[3] = tested on: Staphylococcus aureus; test: Antibacterial activity against Staphylococcus aureus at 75 ug/ml after 24 hrs by agar well diffusion method; details: read-out: DIZ
[4] = tested on: Staphylococcus aureus; test: Antibacterial activity against Staphylococcus aureus at 100 ug/ml after 24 hrs by agar well diffusion method; details: read-out: DIZ
[5] = tested on: Bacillus subtilis; test: Antibacterial activity against Bacillus subtilis at 25 ug/ml after 24 hrs by agar well diffusion method; details: read-out: DIZ
[6] = tested on: Bacillus subtilis; test: Antibacterial activity against Bacillus subtilis at 50 ug/ml after 24 hrs by agar well diffusion method; details: read-out: DIZ
[7] = tested on: Bacillus subtilis; test: Antibacterial activity against Bacillus subtilis at 75 ug/ml after 24 hrs by agar well diffusion method; details: read-out: DIZ
[8] = tested on: Bacillus subtilis; test: Antibacterial activity against Bacillus subtilis at 100 ug/ml after 24 hrs by agar well diffusion method; details: read-out: DIZ
[9] = tested on: Escherichia coli; test: Antibacterial activity against Escherichia coli at 25 ug/ml after 24 hrs by agar well diffusion method; details: read-out: DIZ
[10] = tested on: Escherichia coli; test: Antibacterial activity against Escherichia coli at 50 ug/ml after 24 hrs by agar well diffusion method; details: read-out: DIZ
[11] = tested on: Escherichia coli; test: Antibacterial activity against Escherichia coli at 75 ug/ml after 24 hrs by agar well diffusion method; details: read-out: DIZ
[12] = tested on: Escherichia coli; test: Antibacterial activity against Escherichia coli at 100 ug/ml after 24 hrs by agar well diffusion method; details: read-out: DIZ
[13] = tested on: Klebsiella pneumoniae; test: Antibacterial activity against Klebsiella pneumoniae at 25 ug/ml after 24 hrs by agar well diffusion method
[14] = tested on: Klebsiella pneumoniae; test: Antibacterial activity against Klebsiella pneumoniae at 50 ug/ml after 24 hrs by agar well diffusion method
[15] = tested on: Klebsiella pneumoniae; test: Antibacterial activity against Klebsiella pneumoniae at 75 ug/ml after 24 hrs by agar well diffusion method
[16] = tested on: Klebsiella pneumoniae; test: Antibacterial activity against Klebsiella pneumoniae at 100 ug/ml after 24 hrs by agar well diffusion method
[17] = tested on: Staphylococcus aureus; test: Antibacterial activity against methicillin resistant Staphylococcus aureus MRSA090 at 25 ug/ml after 24 hrs by agar well diffusion method; details: MRSA090, 24 h, read-out: DIZ
[18] = tested on: Staphylococcus aureus; test: Antibacterial activity against methicillin resistant Staphylococcus aureus MRSA090 at 50 ug/ml after 24 hrs by agar well diffusion method; details: MRSA090, 24 h, read-out: DIZ
[19] = tested on: Staphylococcus aureus; test: Antibacterial activity against methicillin resistant Staphylococcus aureus MRSA090 at 75 ug/ml after 24 hrs by agar well diffusion method; details: MRSA090, 24 h, read-out: DIZ
[20] = tested on: Staphylococcus aureus; test: Antibacterial activity against methicillin resistant Staphylococcus aureus MRSA090 at 100 ug/ml after 24 hrs by agar well diffusion method; details: MRSA090, 24 h, read-out: DIZ
[21] = tested on: Aspergillus niger; test: Antifungal activity against Aspergillus niger at 25 ug/ml after 48 hrs by agar well diffusion method; details: read-out: DIZ
[22] = tested on: Aspergillus niger; test: Antifungal activity against Aspergillus niger at 50 ug/ml after 48 hrs by agar well diffusion method; details: read-out: DIZ
[23] = tested on: Aspergillus niger; test: Antifungal activity against Aspergillus niger at 75 ug/ml after 48 hrs by agar well diffusion method; details: read-out: DIZ
[24] = tested on: Aspergillus niger; test: Antifungal activity against Aspergillus niger at 100 ug/ml after 48 hrs by agar well diffusion method; details: read-out: DIZ
[25] = tested on: Fusarium verticillioides; test: Antifungal activity against Fusarium moniliforme at 25 ug/ml after 48 hrs by agar well diffusion method; details: read-out: DIZ
[26] = tested on: Fusarium verticillioides; test: Antifungal activity against Fusarium moniliforme at 50 ug/ml after 48 hrs by agar well diffusion method; details: read-out: DIZ
[27] = tested on: Fusarium verticillioides; test: Antifungal activity against Fusarium moniliforme at 75 ug/ml after 48 hrs by agar well diffusion method; details: read-out: DIZ
[28] = tested on: Fusarium verticillioides; test: Antifungal activity against Fusarium moniliforme at 100 ug/ml after 48 hrs by agar well diffusion method; details: read-out: DIZ
[29] = tested on: Fusarium oxysporum; test: Antifungal activity against Fusarium oxysporum at 25 ug/ml after 48 hrs by agar well diffusion method; details: read-out: DIZ
[30] = tested on: Fusarium oxysporum; test: Antifungal activity against Fusarium oxysporum at 50 ug/ml after 48 hrs by agar well diffusion method; details: read-out: DIZ
[31] = tested on: Fusarium oxysporum; test: Antifungal activity against Fusarium oxysporum at 75 ug/ml after 48 hrs by agar well diffusion method; details: read-out: DIZ
[32] = tested on: Fusarium oxysporum; test: Antifungal activity against Fusarium oxysporum at 100 ug/ml after 48 hrs by agar well diffusion method; details: read-out: DIZ
[33] = tested on: Klebsiella pneumoniae; test: Antibacterial activity against Klebsiella pneumoniae incubated for overnight by microdilution method
[34] = tested on: Staphylococcus aureus; test: Antibacterial activity against Staphylococcus aureus incubated for overnight by microdilution method
[35] = tested on: Bacillus subtilis; test: Antibacterial activity against Bacillus subtilis incubated for overnight by microdilution method
[36] = tested on: Escherichia coli; test: Antibacterial activity against Escherichia coli incubated for overnight by microdilution method
[37] = tested on: Aspergillus niger; test: Antifungal activity against Aspergillus niger after 48 to 72 hrs by microdilution method
[38] = tested on: Fusarium verticillioides; test: Antifungal activity against Fusarium moniliforme after 48 to 72 hrs by microdilution method
[39] = tested on: Fusarium oxysporum; test: Antifungal activity against Fusarium oxysporum after 48 to 72 hrs by microdilution method

For `Cc1cccc2nc(N/N=C/c3ccc(F)cc3F)sc12`, the zone of inhibition at 25 µg/mL [1] was 5 mm, the zone of inhibition at 50 µg/mL [2] was 8 mm and the zone of inhibition at 75 µg/mL [3] was 11 mm. It also gave a zone of inhibition at 100 µg/mL [4] of 15 mm, a zone of inhibition at 25 µg/mL [5] of 7 mm and a zone of inhibition at 50 µg/mL [6] of 10 mm. For the same compound, the zone of inhibition at 75 µg/mL [7] was 13 mm, the zone of inhibition at 100 µg/mL [8] was 15 mm and the zone of inhibition at 25 µg/mL [9] was 4 mm. The zone of inhibition at 50 µg/mL [10] was 7 mm, the zone of inhibition at 75 µg/mL [11] was 11 mm and the zone of inhibition at 100 µg/mL [12] was 14 mm. The “diameter of the inhibition zone (DIZ)” value [13] was “inactive”, the “diameter of the inhibition zone (DIZ)” value [14] was “inactive” and the “diameter of the inhibition zone (DIZ)” value [15] was “inactive”. The “diameter of the inhibition zone (DIZ)” value [16] was “inactive”, the zone of inhibition at 25 µg/mL [17] was 10 mm and the zone of inhibition at 50 µg/mL [18] was 13 mm. The zone of inhibition at 75 µg/mL [19] was 16 mm, the zone of inhibition at 100 µg/mL [20] was 19 mm and the zone of inhibition at 25 µg/mL [21] was 17 mm. It also gave a zone of inhibition at 50 µg/mL [22] of 24 mm, a zone of inhibition at 75 µg/mL [23] of 29 mm and a zone of inhibition at 100 µg/mL [24] of 30 mm. The zone of inhibition at 25 µg/mL [25] was 18 mm, the zone of inhibition at 50 µg/mL [26] was 23 mm and the zone of inhibition at 75 µg/mL [27] was 28 mm. The zone of inhibition at 100 µg/mL [28] was 33 mm, the zone of inhibition at 25 µg/mL [29] was 10 mm and the zone of inhibition at 50 µg/mL [30] was 13 mm. It also gave a zone of inhibition at 75 µg/mL [31] of 16 mm, a zone of inhibition at 100 µg/mL [32] of 20 mm and an MIC [33] of 22 µg/mL (≈ 72.5 µM). It also gave an MIC [34] of 23 µg/mL (≈ 75.8 µM), an MIC [35] of 25 µg/mL (≈ 82.4 µM) and an MIC [36] of 24 µg/mL (≈ 79.1 µM). For the same compound, the MIC [37] was 26 µg/mL (≈ 85.7 µM), the MIC [38] was 20 µg/mL (≈ 65.9 µM) and the MIC [39] was 18 µg/mL (≈ 59.3 µM).

With `CC(=O)N1CCN(c2ccc(OCC3COC(Cn4ccnc4)(c4ccc(Cl)cc4Cl)O3)cc2)CC1` (centres undefined) [KETOCONAZOLE] the zone of inhibition at 25 µg/mL [21] was 24 mm, the zone of inhibition at 50 µg/mL [22] was 28 mm and the zone of inhibition at 75 µg/mL [23] was 34 mm. For the same compound, the zone of inhibition at 100 µg/mL [24] was 37 mm, the zone of inhibition at 25 µg/mL [25] was 21 mm and the zone of inhibition at 50 µg/mL [26] was 25 mm. The zone of inhibition at 75 µg/mL [27] was 31 mm, the zone of inhibition at 100 µg/mL [28] was 34 mm and the zone of inhibition at 25 µg/mL [29] was 23 mm. For the same compound, the zone of inhibition at 50 µg/mL [30] was 22 mm, the zone of inhibition at 75 µg/mL [31] was 32 mm and the zone of inhibition at 100 µg/mL [32] was 38 mm. The MIC [37] was 28 µg/mL (≈ 52.7 µM), the MIC [38] was 27 µg/mL (≈ 50.8 µM) and the MIC [39] was 24 µg/mL (≈ 45.2 µM).

For `Cc1cccc2nc(N/N=C/c3ccc([N+](=O)[O-])cc3[N+](=O)[O-])sc12`, the zone of inhibition at 25 µg/mL [1] was 6 mm, the zone of inhibition at 50 µg/mL [2] was 9 mm and the zone of inhibition at 75 µg/mL [3] was 13 mm. It also gave a zone of inhibition at 100 µg/mL [4] of 19 mm, a zone of inhibition at 25 µg/mL [5] of 3 mm and a zone of inhibition at 50 µg/mL [6] of 7 mm. For the same compound, the zone of inhibition at 75 µg/mL [7] was 12 mm, the zone of inhibition at 100 µg/mL [8] was 16 mm and the zone of inhibition at 25 µg/mL [9] was 8 mm. The zone of inhibition at 50 µg/mL [10] was 13 mm, the zone of inhibition at 75 µg/mL [11] was 15 mm and the zone of inhibition at 100 µg/mL [12] was 18 mm. It also gave a zone of inhibition at 25 µg/mL ([13]; read-out: DIZ) of 5 mm, a zone of inhibition at 50 µg/mL ([14]; read-out: DIZ) of 19 mm and a zone of inhibition at 75 µg/mL ([15]; read-out: DIZ) of 14 mm. It also gave a zone of inhibition at 100 µg/mL ([16]; read-out: DIZ) of 19 mm, a zone of inhibition at 25 µg/mL [17] of 8 mm and a zone of inhibition at 50 µg/mL [18] of 13 mm. The zone of inhibition at 75 µg/mL [19] was 16 mm, the zone of inhibition at 100 µg/mL [20] was 18 mm and the zone of inhibition at 25 µg/mL [21] was 21 mm. It also gave a zone of inhibition at 50 µg/mL [22] of 24 mm, a zone of inhibition at 75 µg/mL [23] of 29 mm and a zone of inhibition at 100 µg/mL [24] of 32 mm. The zone of inhibition at 25 µg/mL [25] was 20 mm, the zone of inhibition at 50 µg/mL [26] was 24 mm and the zone of inhibition at 75 µg/mL [27] was 30 mm. For the same compound, the zone of inhibition at 100 µg/mL [28] was 36 mm, the zone of inhibition at 25 µg/mL [29] was 13 mm and the zone of inhibition at 50 µg/mL [30] was 19 mm. For the same compound, the zone of inhibition at 75 µg/mL [31] was 25 mm, the zone of inhibition at 100 µg/mL [32] was 28 mm and the MIC [37] was 25 µg/mL (≈ 70 µM). It also gave an MIC [38] of 25 µg/mL (≈ 70 µM) and an MIC [39] of 22 µg/mL (≈ 61.6 µM).
